Source: ChEMBL document CHEMBL1909570, “Synthesis and antibacterial activity of N4-mono alkyl derivatives of novel glycopeptide LYV07ww01” (2011)
Values after ≈ are worked out from the molar mass of the structure shown.

What was measured:
Assay type in all cases: functional
Enterococcus faecalis [1] = experiment: microbe, parasite or virus in culture; settings: ATCC 29212
Description: Antibacterial activity against vancomycin-sensitive Enterococcus faecalis ATCC 29212 by CLSI agar microdilution method

Streptococcus pneumoniae [2] = experiment: Antibacterial activity against penicillin-intermediate Streptococcus pneumoniae ATCC 49619 by CLSI broth microdilution method
Staphylococcus aureus [3] = experiment: microbe, parasite or virus in culture; settings: ATCC 25923
Description: Antibacterial activity against methicillin-sensitive Staphylococcus aureus ATCC 25923 by CLSI agar microdilution method

Streptococcus = experiment: Antibacterial activity against Streptococcus gamma 32206 by CLSI agar microdilution method
Staphylococcus = experiment: Antibacterial activity against Staphylococcus albus 26101 by CLSI agar microdilution method
Enterococcus faecium [4] = experiment: Antibacterial activity against vancomycin-resistant Enterococcus faecium MEFA 0039 by CLSI agar microdilution method relative to vancomycin
Streptococcus pneumoniae [5] = experiment: Antibacterial activity against Streptococcus pneumoniae 31002 by CLSI agar microdilution method
Enterococcus faecium [6] = experiment: Antibacterial activity against vancomycin-resistant Enterococcus faecium MEFA 0039 by CLSI agar microdilution method
Enterococcus faecium [7] = experiment: Antibacterial activity against Enterococcus faecium 32220 by CLSI agar microdilution method
Enterococcus faecium [8] = experiment: Antibacterial activity against vancomycin-sensitive Enterococcus faecium ATCC 35667 by CLSI agar microdilution method
Staphylococcus aureus [9] = experiment: Antibacterial activity against Staphylococcus aureus 26003 by CLSI agar microdilution method
[10] = test system: Staphylococcus epidermidis; experiment: Antibacterial activity against Staphylococcus epidermidis 26069 by CLSI agar microdilution method
Streptococcus pneumoniae [11] = experiment: Antibacterial activity against penicillin-resistant Streptococcus pneumoniae MSPN 0003 by CLSI broth microdilution method
Enterococcus faecalis [12] = experiment: Antibacterial activity against vancomycin-resistant Enterococcus faecalis ATCC 51299 by CLSI agar microdilution method relative to vancomycin
Staphylococcus aureus [13] = experiment: microbe, parasite or virus in culture; settings: ATCC 33591
Description: Antibacterial activity against methicillin-resistant Staphylococcus aureus ATCC 33591 by CLSI agar microdilution method

Enterococcus faecalis [14] = experiment: microbe, parasite or virus in culture; settings: ATCC 51299
Enterococcus faecium [15] = experiment: Antibacterial activity against vancomycin-sensitive Enterococcus faecium ATCC 35667 by CLSI agar microdilution method relative to LYV07ww01

| SMILES | MIC (Enterococcus faecalis [1]) [µg/mL] | MIC (Streptococcus pneumoniae [2]) [µg/mL] | MIC (Staphylococcus aureus [3]) [µg/mL] | MIC (Streptococcus) [µg/mL] | MIC (Staphylococcus) [µg/mL] | fold change (FC) (Enterococcus faecium [4]) | MIC (Streptococcus pneumoniae [5]) [µg/mL] | MIC (Enterococcus faecium [6]) [µg/mL] | MIC (Enterococcus faecium [7]) [µg/mL] | MIC (Enterococcus faecium [8]) [µg/mL] | MIC (Staphylococcus aureus [9]) [µg/mL] | MIC [10] [µg/mL] | MIC (Streptococcus pneumoniae [11]) [µg/mL] | fold change (FC) (Enterococcus faecalis [12]) | MIC (Staphylococcus aureus [13]) [µg/mL] | MIC (Enterococcus faecalis [14]) [µg/mL] | fold change (FC) (Enterococcus faecium [15]) |
| --- | --- | --- | --- | --- | --- | --- | --- | --- | --- | --- | --- | --- | --- | --- | --- | --- | --- |
| CN[C@H](CC(C)C)C(=O)N[C@H]1C(=O)N[C@@H](CC(N)=O)C(=O)N[C@H]2C(=O)N[C@H]3C(=O)N[C@H](C(=O)N[C@@H](C(=O)O)c4cc(O)cc(O)c4-c4cc3ccc4O)[C@H](O[C@H]3C[C@](C)(N)[C@H](O)[C@H](C)O3)c3ccc(c(Cl)c3)Oc3cc2cc(c3O[C@@H]2O[C@H](CO)[C@@H](O)[C@H](O)[C@H]2O[C@H]2C[C@](C)(NCc3ccccc3Cl)[C@H](O)[C@H](C)O2)Oc2ccc(cc2Cl)[C@H]1O | 0.5 (≈ 0.291 µM) | ≤ 0.031 | 1 (≈ 0.582 µM) | 1.56 (≈ 0.909 µM) | 3.13 (≈ 1.82 µM) | 4 | 0.78 (≈ 0.454 µM) | 8 (≈ 4.66 µM) | 1.56 (≈ 0.909 µM) | 0.25 (≈ 0.146 µM) | 1.56 (≈ 0.909 µM) | 6.25 (≈ 3.64 µM) | 0.125 (≈ 0.0728 µM) | 4 | 0.5 (≈ 0.291 µM) | 0.5 (≈ 0.291 µM) |  |
| CN[C@H](CC(C)C)C(=O)N[C@H]1C(=O)N[C@@H](CC(N)=O)C(=O)N[C@H]2C(=O)N[C@H]3C(=O)N[C@H](C(=O)N[C@@H](C(=O)O)c4cc(O)cc(O)c4-c4cc3ccc4O)[C@H](O[C@H]3C[C@](C)(N)[C@H](O)[C@H](C)O3)c3ccc(c(Cl)c3)Oc3cc2cc(c3O[C@@H]2O[C@H](CO)[C@@H](O)[C@H](O)[C@H]2O[C@H]2C[C@](C)(NCc3cccc(Br)c3)[C@H](O)[C@H](C)O2)Oc2ccc(cc2Cl)[C@H]1O | 0.25 (≈ 0.142 µM) | ≤ 0.031 | 1 (≈ 0.568 µM) | 3.13 (≈ 1.78 µM) | 0.78 (≈ 0.443 µM) |  | 0.78 (≈ 0.443 µM) | 2 (≈ 1.14 µM) | 0.78 (≈ 0.443 µM) | ≤ 0.031 | 0.78 (≈ 0.443 µM) | > 25 | ≤ 0.031 | 4 | 0.5 (≈ 0.284 µM) | 0.5 (≈ 0.284 µM) | 4 |
| CN[C@H](CC(C)C)C(=O)N[C@H]1C(=O)N[C@@H](CC(N)=O)C(=O)N[C@H]2C(=O)N[C@H]3C(=O)N[C@H](C(=O)N[C@@H](C(=O)O)c4cc(O)cc(O)c4-c4cc3ccc4O)[C@H](O[C@H]3C[C@](C)(N)[C@H](O)[C@H](C)O3)c3ccc(c(Cl)c3)Oc3cc2cc(c3O[C@@H]2O[C@H](CO)[C@@H](O)[C@H](O)[C@H]2O[C@H]2C[C@](C)(NCc3ccccc3Br)[C@H](O)[C@H](C)O2)Oc2ccc(cc2Cl)[C@H]1O | 0.25 (≈ 0.142 µM) | ≤ 0.031 | 1 (≈ 0.568 µM) | 0.39 (≈ 0.221 µM) | 1.56 (≈ 0.886 µM) | 4 | 0.195 (≈ 0.111 µM) | 4 (≈ 2.27 µM) | 1.56 (≈ 0.886 µM) | 0.125 (≈ 0.071 µM) | 1.56 (≈ 0.886 µM) | > 25 | 0.063 (≈ 0.0358 µM) | 4 | 0.5 (≈ 0.284 µM) | 0.5 (≈ 0.284 µM) |  |
| CN[C@H](CC(C)C)C(=O)N[C@H]1C(=O)N[C@@H](CC(N)=O)C(=O)N[C@H]2C(=O)N[C@H]3C(=O)N[C@H](C(=O)N[C@@H](C(=O)O)c4cc(O)cc(O)c4-c4cc3ccc4O)[C@H](O[C@H]3C[C@](C)(N)[C@H](O)[C@H](C)O3)c3ccc(c(Cl)c3)Oc3cc2cc(c3O[C@@H]2O[C@H](CO)[C@@H](O)[C@H](O)[C@H]2O[C@H]2C[C@](C)(NCc3ccc(OC)cc3)[C@H](O)[C@H](C)O2)Oc2ccc(cc2Cl)[C@H]1O | 0.5 (≈ 0.292 µM) | 0.063 (≈ 0.0368 µM) | 1 (≈ 0.584 µM) | 1.56 (≈ 0.911 µM) | 1.56 (≈ 0.911 µM) | 4 | 0.78 (≈ 0.455 µM) | 4 (≈ 2.34 µM) | 1.56 (≈ 0.911 µM) | 0.125 (≈ 0.073 µM) | 0.78 (≈ 0.455 µM) | 3.13 (≈ 1.83 µM) | 0.125 (≈ 0.073 µM) | 4 | 0.5 (≈ 0.292 µM) | 0.5 (≈ 0.292 µM) |  |
| CN[C@H](CC(C)C)C(=O)N[C@H]1C(=O)N[C@@H](CC(N)=O)C(=O)N[C@H]2C(=O)N[C@H]3C(=O)N[C@H](C(=O)N[C@@H](C(=O)O)c4cc(O)cc(O)c4-c4cc3ccc4O)[C@H](O[C@H]3C[C@](C)(N)[C@H](O)[C@H](C)O3)c3ccc(c(Cl)c3)Oc3cc2cc(c3O[C@@H]2O[C@H](CO)[C@@H](O)[C@H](O)[C@H]2O[C@H]2C[C@](C)(NCc3ccc(C(C)C)cc3)[C@H](O)[C@H](C)O2)Oc2ccc(cc2Cl)[C@H]1O | 0.5 (≈ 0.29 µM) | ≤ 0.031 | 1 (≈ 0.58 µM) | 1.56 (≈ 0.905 µM) | 1.56 (≈ 0.905 µM) |  | 0.78 (≈ 0.452 µM) | 2 (≈ 1.16 µM) | 1.56 (≈ 0.905 µM) | ≤ 0.031 | 1.56 (≈ 0.905 µM) | 6.25 (≈ 3.62 µM) | ≤ 0.031 | 4 | 0.5 (≈ 0.29 µM) | 0.5 (≈ 0.29 µM) | 4 |
